Earlier results as cited in patent publication US6521209B1, “Bifunctional detection agents” (California Institute of Technology, priority 1996, dated 2003).

Conditions: for stability constant (K), formation constant, logK: Gd(III) complex

stability constant (K), formation constant, logK	dissociation kinetics (at physiological pH)	Structure (SMILES)
22.4	–	O=C([O-])CN(CCN(CC(=O)[O-])CC(=O)O)CCN(CC(=O)[O-])CC(=O)O.[Gd+3] [Gd(DTPA)]
28.5	very slow dissociation kinetics	O=C([O-])CN1CCN(CC(=O)[O-])CCN(CC(=O)O)CCN(CC(=O)[O-])CC1.[Gd+3] [Gd-DOTA]
